Experimental data reported in paper PMC5498579, “A novel function for globulin in sequestering plant hormone: Crystal structure of Wrightia tinctoria 11S globulin in complex with auxin” (Scientific Reports, 2017).

Target: T1, Wrightia tinctoria 11S globulin (WTG) (Wrightia tinctoria, UniProt A0A162EGL7)
T1 construct: native purification from seeds; signal peptide (first 26 residues) removed; cleaved at Asn284-Gly285 into acidic and basic subunits joined by disulphide Cys120-Cys291; 18 C-terminal residues not seen; homohexamer
Assay: X-ray crystal structure of complex ([…] Å); co-purified ligand identified by MALDI-MS and HRMS
Format: binding
Conditions: naturally bound ligand; three pockets at interface of four chains between two trimers; two alternate orientations, 0.5 occupancy; crystals at pH 8.5

T1 sequence (A0A162EGL7 entry or part of it): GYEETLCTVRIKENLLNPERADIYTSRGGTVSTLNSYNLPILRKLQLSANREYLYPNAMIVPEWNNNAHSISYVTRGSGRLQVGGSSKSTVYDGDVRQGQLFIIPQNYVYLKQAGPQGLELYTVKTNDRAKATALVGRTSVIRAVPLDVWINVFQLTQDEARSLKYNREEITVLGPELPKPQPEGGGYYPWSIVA
T1 sequence (A0A162EGL7 entry or part of it): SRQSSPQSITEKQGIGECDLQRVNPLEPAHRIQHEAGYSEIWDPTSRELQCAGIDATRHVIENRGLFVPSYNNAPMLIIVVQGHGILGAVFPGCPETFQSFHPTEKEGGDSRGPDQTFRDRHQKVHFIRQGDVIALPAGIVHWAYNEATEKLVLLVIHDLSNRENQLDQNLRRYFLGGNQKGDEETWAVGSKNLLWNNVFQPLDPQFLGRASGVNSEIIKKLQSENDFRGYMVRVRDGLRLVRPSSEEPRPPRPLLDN

O=C(O)Cc1c[nH]c2ccccc12 [Indole-3-acetic acid]
X-ray crystal structure of complex (1.7 Å); co-purified ligand identified by MAL: clearly revealed the presence of an IAA molecule in alternate orientation at the hydrophobic site
